Publication PMC10840383, “Clinical features, functional consequences, and rescue pharmacology of missense GRID1 and GRID2 human variants” (Human Molecular Genetics, 2023)
Substitutions are numbered along the chain they refer to. Several values for one entry are separate records, joined by “and”; a condition that tells them apart may be missing. Equal values may be shown once. Read-outs that look alike come from different tables or passages of the source.

Columns and labels:
[1] = biological target: T1, GluD2-T649A (Rattus norvegicus, UniProt Q63226, T649A); test: TEVC of constitutive current, Xenopus oocytes expressing GluD2-T649A; assay type: cell-based; conditions: for IC50: read-out: Pentamidine IC50
T1 construct: expressed in transfected cells; host or cells: Xenopus laevis oocytes injected with cRNA
T1 sequence (Q63226 24-1007 T649A): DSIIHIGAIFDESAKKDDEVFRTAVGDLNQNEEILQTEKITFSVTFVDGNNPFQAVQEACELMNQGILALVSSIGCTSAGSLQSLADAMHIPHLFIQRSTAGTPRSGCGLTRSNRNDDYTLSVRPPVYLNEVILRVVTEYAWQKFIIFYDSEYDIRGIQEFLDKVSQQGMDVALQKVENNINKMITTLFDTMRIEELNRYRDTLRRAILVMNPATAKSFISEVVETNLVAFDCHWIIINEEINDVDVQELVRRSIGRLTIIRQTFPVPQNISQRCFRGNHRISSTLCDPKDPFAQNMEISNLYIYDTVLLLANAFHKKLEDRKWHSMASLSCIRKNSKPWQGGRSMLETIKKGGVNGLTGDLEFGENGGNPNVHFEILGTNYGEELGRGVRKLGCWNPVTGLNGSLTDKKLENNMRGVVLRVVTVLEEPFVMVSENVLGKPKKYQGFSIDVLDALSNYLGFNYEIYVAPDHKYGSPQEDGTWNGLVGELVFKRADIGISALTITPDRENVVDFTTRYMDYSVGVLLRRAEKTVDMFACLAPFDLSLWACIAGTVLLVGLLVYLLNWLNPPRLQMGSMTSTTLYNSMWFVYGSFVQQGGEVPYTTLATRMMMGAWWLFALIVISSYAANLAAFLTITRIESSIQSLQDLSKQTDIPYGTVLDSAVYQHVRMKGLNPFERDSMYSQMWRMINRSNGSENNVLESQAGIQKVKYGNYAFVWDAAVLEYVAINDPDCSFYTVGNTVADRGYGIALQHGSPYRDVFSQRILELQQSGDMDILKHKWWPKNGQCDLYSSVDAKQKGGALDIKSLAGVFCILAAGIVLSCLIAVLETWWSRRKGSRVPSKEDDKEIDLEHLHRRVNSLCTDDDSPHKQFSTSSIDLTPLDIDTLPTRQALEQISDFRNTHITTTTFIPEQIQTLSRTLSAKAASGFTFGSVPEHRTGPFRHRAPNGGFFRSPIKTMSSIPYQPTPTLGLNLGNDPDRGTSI

[2] = biological target: T2, GluD2-L656V (Rattus norvegicus, UniProt Q63226, L656V); test: TEVC of constitutive current, Xenopus oocytes expressing GluD2-L656V; assay type: cell-based
T2 construct: expressed in transfected cells; host or cells: Xenopus laevis oocytes injected with cRNA
T2 sequence (Q63226 24-1007 L656V): T1 sequence (Q63226 24-1007 T649A) with A626T, L633V

[3] = normalized to NMDG+ − Na+ difference current
[4] = potentiation of constitutive current, read-out: Ca2+ EC50 [95% CI]
[5] = read-out: Ca2+ potentiation EC50
[6] = 10 mM D-serine, positive = increase, negative = decrease of activity
[7] = percent of constitutive leak current (NMDG+/Na+ difference current)
[8] = 100 μM pentamidine, positive = increase, negative = decrease of activity

## [Ca+2] [Ca^2+]
[1]; Hill fit, Fig. S7A
  Ca2+ EC50 of the relation Ca2+ concentration vs D-serine IC50: 630 µM
  Hill slope of the relation Ca2+ concentration vs D-serine IC50: 1.4
[1]; [3]
  Ca2+ % Max (NMDG+ − Na+) Mean ± SEM: 345 ± 55 (10) %
[1]; [4]
  EC50: 290 µM
[1]; ratio
  Ca2+ EC50 A654T/EC50 variant: 0.52
[1]; [5]
  EC50: 100 to 400 µM
[2]; [3]
  Ca2+ % Max (NMDG+ − Na+) Mean ± SEM: 260 ± 9.9 (11) %
[2]; [4]
  EC50: 170 µM
[2]; ratio
  Ca2+ EC50 A654T/EC50 variant: 0.88
[2]; [5]
  EC50: 100 to 400 µM

## N[C@H](CO)C(=O)O [D-serine]
[1]; 1 mM Ca2+, Fig. S7B
  D-serine Hill slope: 2.0
  D-serine Maximum: 54%
[1]; [6]
  D-Serine effect (Baseline −10 mM D-Serine): −35 ± 5.6 (14) nA
[1]; [7]
  D-serine % Max (NMDG+ − Na+) Mean ± SEM: 49 ± 2.5 (7) %
[2]; 10 mM D-serine
  Reduction of maximum possible activity (Na+ −NMDG+ difference current) by D-serine: ~ 50%
[2]; [6]
  D-Serine effect (Baseline −10 mM D-Serine): −460 ± 53 (12) nA
[2]; [7]
  D-serine % Max (NMDG+ − Na+) Mean ± SEM: 62 ± 3.2 (14) %

## N=C(N)c1ccc(OCCCCCOc2ccc(C(=N)N)cc2)cc1 [Pentamidine, pentamidine]
[1]; [8]
  Pentamidine effect (Baseline −100 μM Pentamidine): −18 ± 4.8 (14) nA
[1]; IC50 comparison
  Fold increase in pentamidine potency on GluD2-T649A compared to GluD2-A654T: ~ 200 fold and > 200 fold
[1]; inhibition of constitutive channels
  IC50: 0.037 µM
[1]; inhibition of constitutive current, 1 mM Ca2+
  IC50: 0.036 µM
[2]; [8]
  Pentamidine effect (Baseline −100 μM Pentamidine): −640 ± 190 (12) nA
[2]; read-out: Pentamidine IC50
  IC50: 10 µM
